Source: US4202975A, “Isoxazolo[3,4-d]pyrimidines” (Takeda Chemical Industries, Ltd., priority 1976, dated 1980)

Key:
Assay type in all cases: in vivo
phenylquinone-writhing = test: Analgesic action (mouse, phenylquinone-writhing test); conditions: 10 mice
Source text: |(mouse, phenylquinone-writhing test)

Carrageenin edema = test: Antiinflammatory action (rat, Carrageenin edema); conditions: 6 rats
Source text: Antiinflammatory action
(Rat, Carrageenin edema)

Mouse = test: Acute toxicity (mouse, oral, mortality); conditions: 500 mg/kg oral; observed for 7 days after dosing, mortality after 8 days
Source text: The acute toxicity data for some representative isoxazolo[3,4-d]pyrimidines(I) are given below in Table 3.
(Mouse, observed for 7 days after dosing, mortality

[1] = 25 mg/kg oral, first experiment, control 12.7 ± 2.5
[2] = 25 mg/kg oral, second experiment, control 17.3 ± 2.6
[3] = 50 mg/kg oral, first experiment, control 12.7 ± 2.5
[4] = 50 mg/kg oral, second experiment, control 17.3 ± 2.6
[5] = 12.5 mg/kg oral, first experiment, control 0.543 ± 0.032
[6] = 25 mg/kg oral, first experiment, control 0.543 ± 0.032
[7] = 12.5 mg/kg oral, second experiment, control 17.3 ± 2.6
[8] = 6.25 mg/kg oral, second experiment, control 0.512 ± 0.017
[9] = 12.5 mg/kg oral, second experiment, control 0.512 ± 0.017
[10] = 25 mg/kg oral, third experiment, control 13.7 ± 1.2

SMILES | % Suppression (phenylquinone-writhing; [1]) | Average number of writhings & standard error (phenylquinone-writhing; [1]) | % Suppression (phenylquinone-writhing; [2]) | Average number of writhings & standard error (phenylquinone-writhing; [2]) | % Suppression (phenylquinone-writhing; [3]) | Average number of writhings & standard error (phenylquinone-writhing; [3]) | Mortality (Mouse) | also measured
Cc1onc2c1c(=O)n(C)c(=O)n2C [Ia, 3,5,7-Trimethyl-5H,7H-isoxazolo[3,4-d]pyrimidine-4,6-dione] | 54.3% | 5.8 ± 2.4 | 67.1% | 5.7 ± 1.5 | 55.9% | 5.6 ± 2.3 | 1/5 | % Suppression (phenylquinone-writhing; [4]): 93.1%; Average number of writhings & standard error (phenylquinone-writhing; [4]): 1.2 ± 0.5; % Suppression (Carrageenin edema; [5]): 21.4%; Volume of edema & standard error (Carrageenin edema; [5]): 0.427 ± 0.030 mL; % Suppression (Carrageenin edema; [6]): 35.5%; Volume of edema & standard error (Carrageenin edema; [6]): 0.350 ± 0.061 mL
COc1ccc2c3c1O[C@H]1[C@@H](O)C=C[C@H]4[C@@H](C2)N(C)CC[C@@]341 [Codeine phosphate, reference compound] | 72.4% | 3.5 ± 1.2 | – | – | – | – | – | –
Cn1c(=O)c2conc2n(C)c1=O [Ib, 5,7-Dimethyl-5H,7H-isoxazolo[3,4-d]pyrimidine-4,6-dione] | 63.8% | 4.6 ± 1.2 | 77.5% | 3.9 ± 1.0 | 92.1% | 1.0 ± 0.8 | 1/5 | % Suppression (phenylquinone-writhing; [7]): 54.9%; Average number of writhings & standard error (phenylquinone-writhing; [7]): 7.8 ± 1.9; % Suppression (Carrageenin edema; [8]): 21.9%; Volume of edema & standard error (Carrageenin edema; [8]): 0.400 ± 0.037 mL; % Suppression (Carrageenin edema; [9]): 32.0%; Volume of edema & standard error (Carrageenin edema; [9]): 0.348 ± 0.014 mL
CCn1c(=O)c2conc2n(CC)c1=O [Ic] | – | – | – | – | – | – | – | % Suppression (phenylquinone-writhing; [10]): 47.4%; Average number of writhings & standard error (phenylquinone-writhing; [10]): 7.2 ± 1.5
